Data taken from patent US10457655B2, “Compounds and compositions for inhibition of FASN” (FORMA Therapeutics, Inc., priority 2013, dated 2019).
Where two headings read alike, the source gives them in different places.

Key:
PC3 cells = assay: Cell Proliferation Assays for FASN Inhibitors (PC3 cells, MTT); format: cell-based; conditions: Homo sapiens, PC-3, 96 h
Experimental: The effects of the FASN inhibitors on cultured cancer cell proliferation were studies with cell proliferation assays. PC3 cells were maintained at standard culture media (F12K media supplemented with 10% fetal bovine serum, 1×MEM nonessential amino acid and 1× penicillin/streptomycin). 2000-3000 cells/100 μL/well was seeded in a 96-well clear culture plate. The cells were incubated overnight in 5% CO2 at 37° C. for attachment. Cell media were removed and replaced with F12K media containing 10% lipid reduced serum and compound. The final DMSO concentration is 0.1%. The cells were maintained in 5% CO2 at 37° C. for 4 days. The viability of cells was determined by MTT assays. The IC50 of a given compound was calculated by fitting the dose response curve with a four parameter logistic equation.

FASN enzyme = FASN enzyme (Homo sapiens, UniProt P49327); assay: Enzymatic Assay for FASN Inhibitors; format: biochemical
Chain of FASN enzyme (P49327 whole entry): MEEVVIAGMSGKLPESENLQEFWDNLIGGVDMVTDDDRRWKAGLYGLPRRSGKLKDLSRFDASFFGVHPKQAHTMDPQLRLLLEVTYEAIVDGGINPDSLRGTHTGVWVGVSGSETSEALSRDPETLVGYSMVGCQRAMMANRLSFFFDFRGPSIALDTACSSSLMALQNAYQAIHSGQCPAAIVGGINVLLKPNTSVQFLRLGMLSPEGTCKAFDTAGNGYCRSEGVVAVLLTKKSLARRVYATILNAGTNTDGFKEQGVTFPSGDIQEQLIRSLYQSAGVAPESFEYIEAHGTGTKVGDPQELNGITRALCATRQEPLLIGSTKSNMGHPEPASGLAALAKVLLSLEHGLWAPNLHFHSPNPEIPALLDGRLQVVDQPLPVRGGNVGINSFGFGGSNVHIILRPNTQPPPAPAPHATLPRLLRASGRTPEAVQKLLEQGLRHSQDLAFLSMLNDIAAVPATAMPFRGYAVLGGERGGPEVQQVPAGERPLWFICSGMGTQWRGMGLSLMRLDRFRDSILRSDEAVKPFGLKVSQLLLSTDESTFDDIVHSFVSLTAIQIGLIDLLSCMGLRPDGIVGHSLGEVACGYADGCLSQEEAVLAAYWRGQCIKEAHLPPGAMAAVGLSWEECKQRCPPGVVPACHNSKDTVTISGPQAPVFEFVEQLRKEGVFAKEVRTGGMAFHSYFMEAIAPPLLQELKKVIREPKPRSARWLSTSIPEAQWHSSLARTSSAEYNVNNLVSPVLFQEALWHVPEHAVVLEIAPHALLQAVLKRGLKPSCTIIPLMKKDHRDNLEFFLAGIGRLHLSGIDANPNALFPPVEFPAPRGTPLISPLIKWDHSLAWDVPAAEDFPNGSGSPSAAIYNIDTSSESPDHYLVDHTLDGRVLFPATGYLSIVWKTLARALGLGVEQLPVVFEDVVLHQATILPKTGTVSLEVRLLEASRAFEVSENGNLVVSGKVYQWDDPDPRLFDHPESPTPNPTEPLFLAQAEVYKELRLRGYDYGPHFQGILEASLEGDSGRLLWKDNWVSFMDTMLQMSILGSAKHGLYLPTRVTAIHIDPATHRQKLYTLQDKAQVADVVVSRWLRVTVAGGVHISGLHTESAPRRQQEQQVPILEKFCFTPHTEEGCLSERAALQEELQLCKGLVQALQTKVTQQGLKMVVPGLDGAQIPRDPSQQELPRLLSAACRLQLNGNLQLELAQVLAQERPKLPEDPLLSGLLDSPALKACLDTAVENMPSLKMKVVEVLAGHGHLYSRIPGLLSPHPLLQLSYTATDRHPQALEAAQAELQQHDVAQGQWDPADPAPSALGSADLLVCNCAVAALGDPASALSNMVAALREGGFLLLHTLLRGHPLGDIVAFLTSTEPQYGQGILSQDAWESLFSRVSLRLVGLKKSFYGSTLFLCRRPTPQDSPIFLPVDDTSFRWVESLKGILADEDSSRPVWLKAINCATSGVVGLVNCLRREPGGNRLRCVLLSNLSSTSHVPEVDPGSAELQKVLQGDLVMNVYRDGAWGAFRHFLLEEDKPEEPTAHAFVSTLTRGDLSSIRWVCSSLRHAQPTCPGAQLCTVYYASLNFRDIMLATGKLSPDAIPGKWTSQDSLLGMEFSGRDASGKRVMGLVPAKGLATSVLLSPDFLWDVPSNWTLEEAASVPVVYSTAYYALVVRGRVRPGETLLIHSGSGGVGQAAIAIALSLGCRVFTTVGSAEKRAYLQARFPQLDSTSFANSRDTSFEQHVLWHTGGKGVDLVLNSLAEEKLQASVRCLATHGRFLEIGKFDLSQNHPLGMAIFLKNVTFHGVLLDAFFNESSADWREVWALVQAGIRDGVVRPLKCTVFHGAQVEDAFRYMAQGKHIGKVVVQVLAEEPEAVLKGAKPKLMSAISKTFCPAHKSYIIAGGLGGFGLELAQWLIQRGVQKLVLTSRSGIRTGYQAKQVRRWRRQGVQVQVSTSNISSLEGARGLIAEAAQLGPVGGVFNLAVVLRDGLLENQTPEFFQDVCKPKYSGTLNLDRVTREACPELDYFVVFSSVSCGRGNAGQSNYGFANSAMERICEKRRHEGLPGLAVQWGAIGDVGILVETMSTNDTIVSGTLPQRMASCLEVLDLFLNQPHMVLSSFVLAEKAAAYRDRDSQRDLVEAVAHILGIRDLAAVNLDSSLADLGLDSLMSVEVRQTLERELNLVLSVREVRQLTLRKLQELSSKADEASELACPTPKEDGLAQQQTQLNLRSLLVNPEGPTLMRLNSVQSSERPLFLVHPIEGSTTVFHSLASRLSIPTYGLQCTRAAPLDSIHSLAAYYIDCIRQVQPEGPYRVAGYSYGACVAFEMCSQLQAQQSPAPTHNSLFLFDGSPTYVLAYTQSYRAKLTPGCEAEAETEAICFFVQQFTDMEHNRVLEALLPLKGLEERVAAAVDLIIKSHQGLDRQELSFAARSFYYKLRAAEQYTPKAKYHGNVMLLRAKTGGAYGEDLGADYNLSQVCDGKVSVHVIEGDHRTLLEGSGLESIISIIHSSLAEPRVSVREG
In short: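 40 nM FASN preincubated with compound 60 min at 25° C in HEPES pH 7.3 buffer with 0.04% Triton X-100. Then 20 μM acetyl-CoA, 60 μM malonyl-CoA and 100 μM NADPH added for 90 min, quenched with CPM thiol probe; fluorescence 360/530 nm, IC50 by four-parameter fit.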

[1] = read-out: IC50 (uM) < 0.5, 10% lipid reduced serum, 4 days, Table 3-1

| SMILES | IC50 (PC3 cells; [1]) | IC50 (FASN enzyme) | other results |
| --- | --- | --- | --- |
| O=C(c1ccc(-c2nc3ccccc3[nH]2)cc1)N1CCN(C(=O)C2(O)CC2)CC1 | < 0.5 µM | – | IC50 (FASN enzyme; FASN enzymatic assay, Table 2-2): 500 to 5000 nM |
| COc1cc(-n2cccn2)ccc1-c1ccc(C(=O)N2CCN(C(=O)C3(O)CC3)CC2)cc1 | – | < 500 nM | IC50 (PC3 cells; read-out: IC50 (uM) ≥ 0.5, 10% lipid reduced serum, 4 days, Table 3-2): ≥ 0.5 µM |
| O=C(c1ccc(-c2cn3ccccc3n2)cc1)N1CCN(C(=O)C2(O)CC2)CC1 | < 0.5 µM | < 500 nM | – |
| O=C(c1ccc(-c2cc3ccccn3n2)cc1)N1CCN(C(=O)C2(O)CC2)CC1 | < 0.5 µM | < 500 nM | – |
| CC(C)n1cc(C#N)c2cc(-c3ccc(C(=O)N4CCN(C(=O)C5(O)CC5)CC4)cc3)ccc21 | < 0.5 µM | < 500 nM | – |
| O=C(c1ccc(-c2ccc3[nH]c(=O)ccc3c2)cc1)N1CCN(C(=O)C2(O)CC2)CC1 | < 0.5 µM | – | – |
| CC(C)S(=O)(=O)Nc1cccc(-c2ccc(C(=O)N3CCN(C(=O)C4(O)CC4)CC3)cc2)c1 | < 0.5 µM | < 500 nM | – |
| O=C(c1ccc(-c2cn3ccccc3n2)cc1Cl)N1CCN(C(=O)C2(O)CC2)CC1 [1-({4-[(2-chloro-4-{imidazo[1,2-a]pyridin-2-yl}phenyl)carbonyl]piperazin-1-yl}carbonyl)cyclopropan-1-ol] | < 0.5 µM | < 500 nM | – |
| O=C(c1ccc2nc(-c3ccccc3)sc2c1)N1CCN(C(=O)C2(O)CC2)CC1 [1-({4-[(2-phenyl-1,3-benzothiazol-6-yl)carbonyl]piperazin-1-yl}carbonyl)cyclopropan-1-ol] | < 0.5 µM | < 500 nM | – |
| O=C(c1ccc(-c2ccc3ccccc3n2)c(F)c1F)N1CCN(C(=O)C2(O)CC2)CC1 [1-[(4-{[2,3-difluoro-4-(quinolin-2-yl)phenyl]carbonyl}piperazin-1-yl)carbonyl]cyclopropan-1-ol] | < 0.5 µM | < 500 nM | – |
| Cn1ccc2cc(-c3ccc(C(=O)N4CCN(C(=O)C5(O)CC5)CC4)c(Cl)c3)ccc21 [1-[(4-{[2-chloro-4-(1-methyl-1H-indol-5-yl)phenyl]carbonyl}piperazin-1-yl)carbonyl]cyclopropan-1-ol] | < 0.5 µM | < 500 nM | – |
| O=C(c1ccc(-c2ccc3ncccc3c2)cc1Cl)N1CCN(C(=O)C2(O)CC2)CC1 [1-[(4-{[2-chloro-4-(quinolin-6-yl)phenyl]carbonyl}piperazin-1-yl)carbonyl]cyclopropan-1-ol] | < 0.5 µM | < 500 nM | – |
| COc1nc2ccccc2cc1-c1ccc(C(=O)N2CCN(C(=O)C3(O)CC3)CC2)c(F)c1 [1-[(4-{[2-fluoro-4-(2-methoxyquinolin-3-yl)phenyl]carbonyl}piperazin-1-yl)carbonyl]cyclopropan-1-ol] | < 0.5 µM | < 500 nM | – |
| O=C(c1ccc(-c2cc(F)c3[nH]ccc3c2)cc1F)N1CCN(C(=O)C2(O)CC2)CC1 [1-[(4-{[2-fluoro-4-(7-fluoro-1H-indol-5-yl)phenyl]carbonyl}piperazin-1-yl)carbonyl]cyclopropan-1-ol] | < 0.5 µM | < 500 nM | – |
| O=C(c1ccc(-c2cnc3ccccc3c2)cc1F)N1CCN(C(=O)C2(O)CC2)CC1 [1-[(4-{[2-fluoro-4-(quinolin-3-yl)phenyl]carbonyl}piperazin-1-yl)carbonyl]cyclopropan-1-ol] | < 0.5 µM | < 500 nM | – |
| CNC(=O)c1cccc(-c2ccc(C(=O)N3CCN(C(=O)C4(O)CC4)CC3)cc2)n1 [6-{4-[4-(1-hydroxycyclopropanecarbonyl)piperazine-1-carbonyl]phenyl}-N-methylpyridine-2-carboxamide] | – | < 500 nM | – |
| Cn1cnc2cc(-c3ccc(C(=O)N4CCN(C(=O)C5(CO)CC5)CC4)cc3)ccc21 [(1-{4-[4-(1-methyl-1H-1,3-benzodiazol-5-yl)benzoyl]piperazine-1-carbonyl}cyclopropyl)methanol] | – | < 500 nM | – |
| C[C@H](O)C(=O)N1CCN(C(=O)c2ccc(-c3ccccc3)cc2)CC1 [(2S)-2-hydroxy-1-{4-[(4-phenylphenyl)carbonyl]piperazin-1-yl}propan-1-one] | – | – | IC50 (FASN enzyme; FASN enzymatic assay, Table 2-3): ≥ 5000 nM |
| Cc1nn(-c2ccc(C(=O)N3CCN(C(=O)C4(O)CC4)CC3)cc2)c2ccccc12 [(4-(1-hydroxycyclopropane-1-carbonyl)piperazin-1-yl)(4-(3-methyl-1H-indazol-1-yl)phenyl)methanone] | – | < 500 nM | – |
| O=C(c1ccc(-c2cccc(NS(=O)(=O)C3CCC3)c2)cc1)N1CCN(C(=O)C2(O)CC2)CC1 [N-(3-{4-[4-(1-hydroxycyclopropanecarbonyl)piperazine-1-carbonyl]phenyl}phenyl)cyclobutanesulfonamide] | – | < 500 nM | – |
| O=C(Nc1cccc(-c2ccc(C(=O)N3CCN(C(=O)C4(O)CC4)CC3)cc2)c1)C1CCCC1 [N-(3-{4-[4-(1-hydroxycyclopropanecarbonyl)piperazine-1-carbonyl]phenyl}phenyl)cyclopentanecarboxamide] | – | < 500 nM | – |
| O=C(c1ccc(-c2cccc(NS(=O)(=O)C3CCOCC3)c2)cc1)N1CCN(C(=O)C2(O)CC2)CC1 [N-(3-{4-[4-(1-hydroxycyclopropanecarbonyl)piperazine-1-carbonyl]phenyl}phenyl)oxane-4-sulfonamide] | – | < 500 nM | – |
| O=C(Nc1noc2cc(-c3ccc(C(=O)N4CCN(C(=O)C5(O)CC5)CC4)cc3)ccc12)C1CC1 [N-(6-{4-[4-(1-hydroxycyclopropanecarbonyl)piperazine-1-carbonyl]phenyl}-1,2-benzoxazol-3-yl)cyclopropanecarboxamide] | – | < 500 nM | – |
| O=C(NC1CC1)c1cccc(-c2ccc(C(=O)N3CCN(C(=O)C4(O)CC4)CC3)cc2)c1 [N-cyclopropyl-3-[4-({4-[(1-hydroxycyclopropyl)carbonyl]piperazin-1-yl}carbonyl)phenyl]benzamide] | – | < 500 nM | – |
| O=C(c1ccc(-c2cccc(S(=O)(=O)NC3CC3)c2)cc1)N1CCN(C(=O)C2(O)CC2)CC1 [N-cyclopropyl-3-[4-({4-[(1-hydroxycyclopropyl)carbonyl]piperazin-1-yl}carbonyl)phenyl]benzene-1-sulfonamide] | – | < 500 nM | – |
| CC(C)OC(=O)Nc1cccc(-c2ccc(C(=O)N3CCN(C(=O)C4(O)CC4)CC3)cc2)c1 [propan-2-yl N-(3-{4-[4-(1-hydroxycyclopropanecarbonyl)piperazine-1-carbonyl]phenyl}phenyl)carbamate] | – | < 500 nM | – |

More lines, main results first:

| IC50 (PC3 cells; [1]) | IC50 (FASN enzyme) | SMILES | other results |
| --- | --- | --- | --- |
| < 0.5 µM | < 500 nM | O=C(c1ccc(-c2cnc3ccccc3c2)cc1Cl)N1CCN(C(=O)C2(O)CC2)CC1 | – |
| < 0.5 µM | < 500 nM | N#Cc1c[nH]c2ccc(-c3ccc(C(=O)N4CCN(C(=O)C5(O)CC5)CC4)cc3Cl)cc12 | – |
| < 0.5 µM | < 500 nM | N#Cc1c[nH]c2ccc(-c3ccc(C(=O)N4CCN(C(=O)C5(O)CC5)CC4)c(Cl)c3)cc12 | – |
| < 0.5 µM | < 500 nM | O=C(c1ccc(-c2ccc3[nH]ccc3n2)cc1)N1CCN(C(=O)C2(O)CC2)CC1 [1-({4-[(4-{1H-pyrrolo[3,2-b]pyridin-5-yl}phenyl)carbonyl]piperazin-1-yl}carbonyl)cyclopropan-1-ol] | – |
| < 0.5 µM | < 500 nM | O=C(c1ccc(-c2ccc3occc3n2)cc1)N1CCN(C(=O)C2(O)CC2)CC1 [1-({4-[(4-{furo[3,2-b]pyridin-5-yl}phenyl)carbonyl]piperazin-1-yl}carbonyl)cyclopropan-1-ol] | – |
| < 0.5 µM | < 500 nM | O=C(c1ccc(-c2ccc3nccn3n2)cc1)N1CCN(C(=O)C2(O)CC2)CC1 [1-({4-[(4-{imidazo[1,2-b]pyridazin-6-yl}phenyl)carbonyl]piperazin-1-yl}carbonyl)cyclopropan-1-ol] | – |
| < 0.5 µM | < 500 nM | Cn1ccc2cc(-c3ccc(C(=O)N4CCN(C(=O)C5(O)CC5)CC4)c(F)c3)ccc21 [1-[(4-{[2-fluoro-4-(1-methyl-1H-indol-5-yl)phenyl]carbonyl}piperazin-1-yl)carbonyl]cyclopropan-1-ol] | – |
| < 0.5 µM | < 500 nM | COc1ccc2nc(-c3ccc(C(=O)N4CCN(C(=O)C5(O)CC5)CC4)c(F)c3)ccc2c1 [1-[(4-{[2-fluoro-4-(6-methoxyquinolin-2-yl)phenyl]carbonyl}piperazin-1-yl)carbonyl]cyclopropan-1-ol] | – |
| < 0.5 µM | – | COc1ccc(OC(F)(F)F)cc1-c1ccc(C(=O)N2CCN(C(=O)C3(O)CC3)CC2)cc1 [1-{[4-({4-[2-methoxy-5-(trifluoromethoxy)phenyl]phenyl}carbonyl)piperazin-1-yl]carbonyl}cyclopropan-1-ol] | – |
| – | < 500 nM | Cc1cc2ccccc2n1-c1ccc(C(=O)N2CCN(C(=O)C3(O)CC3)CC2)cc1 [(4-(1-hydroxycyclopropane-1-carbonyl)piperazin-1-yl)(4-(2-methyl-1H-indol-1-yl)phenyl)methanone] | – |
| – | < 500 nM | O=C(Nc1noc2ccc(-c3ccc(C(=O)N4CCN(C(=O)C5(O)CC5)CC4)cc3)cc12)C1CC1 [N-(5-{4-[4-(1-hydroxycyclopropanecarbonyl)piperazine-1-carbonyl]phenyl}-1,2-benzoxazol-3-yl)cyclopropanecarboxamide] | – |
| – | < 500 nM | CCOC(=O)Nc1cccc(-c2ccc(C(=O)N3CCN(C(=O)C4(O)CC4)CC3)cc2)c1 [ethyl N-(3-{4-[4-(1-hydroxycyclopropanecarbonyl)piperazine-1-carbonyl]phenyl}phenyl)carbamate] | – |
